Patent publication US7943160B2, “Pest control methods” (priority 2002, dated 2011)
Where “and” joins values, the source holds several entries; their conditions need not be identical. Equal entries are not always repeated.

Key:
Format in all cases: in vivo
[1] = tested on: larval ticks (I. scapularis); assay: Systemic efficacy of fipronil diet on larval ticks fed on laboratory mice; conditions: diet compositions containing 960-ppm fipronil (so in the source)
[2] = tested on: larval ticks (I. scapularis); assay: as above; conditions: for Replete Ticks: individual mice; for Replete Ticks, Total: 8 mice
Experimental: To investigate the systemic efficacy of fipronil against ticks, diet compositions formulated with the compound were presented to treatment mice while an EPA challenge diet, without insecticide, was presented to control mice. Diet compositions were presented for 48 hours. Water was supplied ad libitum. Feed consumption was monitored throughout the study. After 48-hours, mice were removed from their cages and 50-70 I. scapularis were applied to each mouse by first placing mice in 50 ml centrifuge tubes will multiple holes in them. Holes were created by melting the centrifuge tube with a soldering iron. Ticks were then applied and mice remained restrained in the tubes for 2-5 hours, thereby allowing the ticks to attach. The mice were placed in cages suspended over water in a humidity chamber maintaining humidity between 60-80%. Water underneath the suspended mice was checked daily for the presence of ticks falling from the mice. The number of fed and unfed ticks was recorded. Water pans were checked for 6 days. The ticks were kept at 21° C., 90% humidity and a light cycle of 16L:8D. Pans were checked for 5 days. The end-point for the insecticides were larval tick mortality after exposure.
Study 1a: A Diet Composition Containing 970-ppm Fipronil Diet was Formulated Using Inert Ingredients of Rolled Oats, Corn Meal, Powdered Sugar and Corn Oil.
The diet was exposed to laboratory mice for 48 hours.
Study 2a: A Diet Composition Containing 485-ppm Fipronil Diet was Formulated and Exposed to Laboratory Mice for 48 Hours.
The diet was exposed to laboratory mice for 48 hours. Ticks were applied directly to the mice.

[3] = tested on: X. cheopis fleas; assay: Flea mortality on rats fed imidacloprid or imidacloprid/piperonyl butoxide diet
Experimental: For example, an investigation was conducted into the ability of piperonyl butoxide to potentiate the insecticidal activity of orally administered imidacloprid to rats challenged with fleas. Piperonyl butoxide compound is known to produce significant decreases in hepatic cytochrome P450 in rats (Dalvi and Dalvi 1991). Because imidacloprid is also metabolized by cytochrome P450 in rats (Schulz-Jander et al. 2002), decreasing the metabolism rate of imidacloprid in the rat (i.e., the rate at which imidacloprid is metabolized by the rat) may increase the availability and therefore the toxicity of the compound to fleas as well as possibly increasing the residual action of the insecticide. Four rats were evaluated for each test diet. Rats were individually housed in individual cages. Rats were housed in cages measuring 24×40.5×18 cm (L×W×H). The floor area measured 972 cm^2. Tap water in glass bottles with stainless steel sipper tubes was available ad libitum. Cages were suspended from shelves on two, single-sided racks. Rats were placed in cages identified by a consecutive number 1-8 and a descriptor for their sex (e.g. M or F). PBO Technical (Prentox®) was received from Prentiss Inc. (Floral Park, N.Y., Lot# 41428). Diet composition was made using the following recipes:
The imidacloprid (Imi) diet composition was formulated at 167 mg/kg imidacloprid. The imidacloprid/PBO diet composition was formulated at 169 mg/kg imidacloprid and 1% PBO. Diets were mixed and presented no-choice to rats for 24 hours. Flea feeding capsules, containing fleas (X. cheopis) were secured to the rats and remained attached for 5 hrs. After exposure, the flea feeders were removed and placed in the humidity chamber until the following morning. Fleas were then evaluated for mortality and morbidity (Table 5).

[4] = tested on: German cockroaches; assay: Cockroach mortality on rodent challenge diet fortified with imidacloprid; conditions: EPA challenge diet fortified with 250 mg/kg imidacloprid
Experimental: To determine if rodent diet compositions containing imidacloprid would be effective at controlling cockroaches, German cockroaches were received from a commercial supplier and placed in a sealed container. Rodent “challenge diet”, the EPA standard rodent diet formulation, fortified with 250 mg/kg imidacloprid was placed in the cage. Water was supplied by a wet cotton wick. The mortality of cockroaches consuming diet was 100%.

In the case of `N#Cc1nn(-c2c(Cl)cc(C(F)(F)F)cc2Cl)c(N)c1[S+]([O-])C(F)(F)F` (stereo not shown) [Fipronil, fipronil], the “preventing ticks from feeding to repletion” value [1] is reported as “effective at preventing ticks from feeding to repletion”, the “Replete Ticks” value ([2]; 485 ppm fipronil diet 48 hours, 70 ticks applied per mouse) is reported as 0 and the “Replete Ticks, Total” value ([2]; 485 ppm fipronil diet, 70 ticks each, control total 162) is reported as 0. The “Replete Ticks” value ([2]; 970-ppm fipronil diet 48 hours, 50 ticks applied per mouse) was 0, the “Replete Ticks, Total” value ([2]; 970-ppm fipronil diet, 50 ticks each, control total 12) was 0 and the “prevents ticks from feeding to repletion” value ([2]; fipronil formulated at 485 mg/kg in diet) was “prevents ticks from feeding to repletion”.

For `O=[N+]([O-])NC1=NCCN1Cc1ccc(Cl)nc1` [Imidacloprid, imidacloprid], the Total fleas dead/recovered ([3]; 4 rats per diet, pooled) was “(71/85)”, the “Total Percent Mortality (%)” value ([3]; 4 rats per diet, Imi 167 mg/kg, Imi/pip 169 mg/kg imidacloprid and 1% PBO) was 83.5% and the “# Fleas Dead/# Fleas Recovered” value ([3]; individual rats, diet 24 hours, flea capsules attached 5 hrs, Imi 167 mg/kg, Imi/pip 169 mg/kg imidacloprid and 1% PBO) was 20/24 and 18/18 and 15/15 and 18/28. For the same compound, the “mortality of cockroaches consuming diet” value [4] was 100%.
